ChEMBL document CHEMBL1201862, “PubChem BioAssay data set” (2004)
Calls of active or inactive are those of the source.

Assays:
[1] = target: T1, Carboxy-terminal domain RNA polymerase II polypeptide A small phosphatase 1 (Homo sapiens, UniProt Q9GZU7); assay: CTDSP1 inhibitors, concentration-response, biochemical, absorbance readout, ultra-high-throughput screen actives (AID 540297); assay type: functional
T1 sequence (Q9GZU7 whole entry): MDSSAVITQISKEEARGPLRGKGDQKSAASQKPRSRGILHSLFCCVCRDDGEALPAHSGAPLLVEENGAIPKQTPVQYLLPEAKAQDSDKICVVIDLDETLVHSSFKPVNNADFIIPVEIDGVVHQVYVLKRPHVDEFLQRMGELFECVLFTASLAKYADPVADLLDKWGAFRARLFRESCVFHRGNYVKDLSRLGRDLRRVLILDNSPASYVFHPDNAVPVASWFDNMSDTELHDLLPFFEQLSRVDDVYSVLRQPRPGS

[2] = target: T2, Long-chain-fatty-acid--AMP ligase FadD28 (Mycobacterium tuberculosis, UniProt P9WQ59); assay: Fluorescence polarization aasay to screen for inhibitors that compete for the binding of FadD28 to a bisubstrate Measured in Biochemical System Using Plate Reader - 2147-01_Inhibitor_Dose_CherryPick_Activity.; assay type: functional, Mycobacterium tuberculosis H37Rv
T2 sequence (P9WQ59 whole entry): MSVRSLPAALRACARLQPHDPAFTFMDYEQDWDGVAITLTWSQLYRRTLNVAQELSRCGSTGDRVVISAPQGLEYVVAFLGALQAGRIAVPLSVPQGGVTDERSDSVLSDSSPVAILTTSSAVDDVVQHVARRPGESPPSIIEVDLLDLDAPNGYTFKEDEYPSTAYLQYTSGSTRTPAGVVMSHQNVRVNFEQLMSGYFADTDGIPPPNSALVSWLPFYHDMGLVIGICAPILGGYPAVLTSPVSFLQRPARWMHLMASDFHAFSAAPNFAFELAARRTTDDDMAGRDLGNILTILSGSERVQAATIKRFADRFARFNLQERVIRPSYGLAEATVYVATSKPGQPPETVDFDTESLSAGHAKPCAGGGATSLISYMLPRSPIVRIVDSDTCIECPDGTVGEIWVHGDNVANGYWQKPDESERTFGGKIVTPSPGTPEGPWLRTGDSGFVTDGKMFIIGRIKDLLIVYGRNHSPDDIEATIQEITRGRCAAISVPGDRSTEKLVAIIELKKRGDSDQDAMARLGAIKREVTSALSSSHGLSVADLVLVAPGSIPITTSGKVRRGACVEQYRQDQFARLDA

[3] = target: Dual specificity tyrosine-phosphorylation-regulated kinase 1A (Rattus norvegicus, UniProt Q63470); assay type: biochemical, Homo sapiens
[4] = HEK-293T viability loss after treatment – luminescence, T-cell screen hits, cytotoxicity control for TCR NF-kB inhibitor project, dose response (AID 489026); assay type: functional, cell-based;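 note: cells exposed to compound about 14 hours before the viability readout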
Nonstructural protein 1 = Nonstructural protein 1 (Influenza A virus, UniProt Q194T2); assay type: functional, Influenza A virus (A/California/07/2009(H1N1))
Sequence of Nonstructural protein 1 (Q194T2 whole entry): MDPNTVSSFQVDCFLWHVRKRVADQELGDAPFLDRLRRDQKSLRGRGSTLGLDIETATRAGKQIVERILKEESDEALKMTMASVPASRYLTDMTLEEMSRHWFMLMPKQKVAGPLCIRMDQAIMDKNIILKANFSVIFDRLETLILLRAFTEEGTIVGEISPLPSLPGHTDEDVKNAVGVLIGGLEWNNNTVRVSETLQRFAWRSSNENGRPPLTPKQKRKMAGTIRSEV

[5] = target: T3, Short transient receptor potential channel 4 (Mus musculus, UniProt Q9QUQ5); assay: block of DAMGO-driven TRPC4 calcium entry – cell-based, HEK293 TRPC4/mu-opioid, Fluo-4 calcium, dose response (AID 434942); assay type: functional;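 note: potency of inhibitors blocking the TRPC4 calcium response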
T3 sequence (Q9QUQ5 whole entry): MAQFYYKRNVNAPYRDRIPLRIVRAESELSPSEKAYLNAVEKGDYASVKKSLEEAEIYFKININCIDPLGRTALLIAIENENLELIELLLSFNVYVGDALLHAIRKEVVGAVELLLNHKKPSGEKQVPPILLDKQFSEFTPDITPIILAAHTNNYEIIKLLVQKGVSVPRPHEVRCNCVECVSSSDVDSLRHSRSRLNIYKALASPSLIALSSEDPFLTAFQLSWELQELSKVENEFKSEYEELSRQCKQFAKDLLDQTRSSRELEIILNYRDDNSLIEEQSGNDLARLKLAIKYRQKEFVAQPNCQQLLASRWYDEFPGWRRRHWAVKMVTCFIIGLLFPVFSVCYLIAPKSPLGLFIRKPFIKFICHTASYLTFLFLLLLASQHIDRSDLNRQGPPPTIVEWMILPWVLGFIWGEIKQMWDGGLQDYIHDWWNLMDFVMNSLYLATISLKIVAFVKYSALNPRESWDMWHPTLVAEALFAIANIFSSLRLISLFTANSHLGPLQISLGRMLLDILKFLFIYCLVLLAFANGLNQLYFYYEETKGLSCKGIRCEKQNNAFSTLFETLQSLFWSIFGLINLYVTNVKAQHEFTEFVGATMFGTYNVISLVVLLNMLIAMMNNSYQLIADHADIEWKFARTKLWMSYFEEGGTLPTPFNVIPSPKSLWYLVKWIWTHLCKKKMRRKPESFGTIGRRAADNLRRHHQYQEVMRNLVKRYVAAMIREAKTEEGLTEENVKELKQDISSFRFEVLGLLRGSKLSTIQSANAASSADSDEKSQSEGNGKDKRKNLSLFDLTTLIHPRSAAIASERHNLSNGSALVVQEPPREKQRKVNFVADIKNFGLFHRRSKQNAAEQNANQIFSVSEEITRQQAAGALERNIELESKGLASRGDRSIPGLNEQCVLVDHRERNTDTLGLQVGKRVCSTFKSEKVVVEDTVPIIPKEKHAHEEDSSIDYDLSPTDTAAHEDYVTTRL

[6] = loss of viability in HepG2 cells – cell-based, CellTiter-Glo, cherry-picked, cytotoxicity control for Shn3 inhibitor project, dose response (AID 624134); assay type: functional
[7] = target: T4, Corticotropin-releasing factor receptor 2/Corticotropin-releasing factor-binding protein (Homo sapiens, UniProt P24387+Q13324); assay: activators of CRF receptor 2 with binding protein – uHTS hits, confirmation (AID 602473); assay type: functional; conditions: read-out: EC50_Mean
T4 sequence (Q13324 whole entry): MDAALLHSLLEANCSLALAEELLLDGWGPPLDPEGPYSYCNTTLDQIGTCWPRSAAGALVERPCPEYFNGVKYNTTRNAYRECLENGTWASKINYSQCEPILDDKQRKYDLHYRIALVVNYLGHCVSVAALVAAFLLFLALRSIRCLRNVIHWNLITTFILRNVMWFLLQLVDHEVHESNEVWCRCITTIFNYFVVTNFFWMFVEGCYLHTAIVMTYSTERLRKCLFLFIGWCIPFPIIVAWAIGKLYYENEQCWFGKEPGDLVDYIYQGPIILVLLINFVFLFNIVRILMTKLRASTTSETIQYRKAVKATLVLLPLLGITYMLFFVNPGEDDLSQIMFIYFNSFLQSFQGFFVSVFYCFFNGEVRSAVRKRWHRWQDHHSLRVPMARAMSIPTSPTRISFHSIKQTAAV
T4 sequence (P24387 whole entry): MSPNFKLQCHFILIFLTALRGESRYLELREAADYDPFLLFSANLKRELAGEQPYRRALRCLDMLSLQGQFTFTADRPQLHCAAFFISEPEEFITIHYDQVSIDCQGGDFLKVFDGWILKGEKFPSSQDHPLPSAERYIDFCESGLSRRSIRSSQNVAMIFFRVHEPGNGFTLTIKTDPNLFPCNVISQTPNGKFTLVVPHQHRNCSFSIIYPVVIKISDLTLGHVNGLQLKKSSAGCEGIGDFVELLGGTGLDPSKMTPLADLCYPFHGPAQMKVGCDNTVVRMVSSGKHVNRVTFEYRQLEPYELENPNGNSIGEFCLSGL

[8] = luciferase reporter signal suppression in cells – H4 neuroglioma cells, luminescence, dose response (AID 1990); assay type: functional, cell-based
[9] = Luminescence Cell-Based Dose Response HTS to Identify Inhibitors of 5'UTR Stem-Loop Driven Prion Protein mRNA Translation in H4 Neuroglioblastoma Cells. [Related pubchem assays: 1827 (Project Summary), 1813 (Primary HTS)]; assay type: functional
[10] = alpha-synuclein stem-loop luciferase translation blockers – H4 neuroglioma cells, luminescence, confirmation (AID 1988); assay type: functional, cell-based
[11] = target: Eukaryotic translation initiation factor 4E (Mus musculus, UniProt P63073); assay: blockers of eIF4G binding by eIF4E – biochemical, TR-FRET, dose response (AID 855); assay type: functional;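 note: potency for disrupting eIF4E binding to eIF4GI seen as loss of FRET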
Sequence of Eukaryotic translation initiation factor 4E (P63073 whole entry): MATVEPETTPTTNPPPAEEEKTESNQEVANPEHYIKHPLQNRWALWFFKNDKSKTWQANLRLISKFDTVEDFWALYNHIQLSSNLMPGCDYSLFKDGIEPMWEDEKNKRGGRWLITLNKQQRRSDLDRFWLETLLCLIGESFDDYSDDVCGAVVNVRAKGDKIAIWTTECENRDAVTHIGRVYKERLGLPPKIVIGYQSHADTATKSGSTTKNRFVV

Cytochrome P450 3A4 = Cytochrome P450 3A4 (Homo sapiens, UniProt P08684);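 note: CYP3A4 tested as one member of a cytochrome P450 panel screen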
Sequence of Cytochrome P450 3A4 (P08684 whole entry): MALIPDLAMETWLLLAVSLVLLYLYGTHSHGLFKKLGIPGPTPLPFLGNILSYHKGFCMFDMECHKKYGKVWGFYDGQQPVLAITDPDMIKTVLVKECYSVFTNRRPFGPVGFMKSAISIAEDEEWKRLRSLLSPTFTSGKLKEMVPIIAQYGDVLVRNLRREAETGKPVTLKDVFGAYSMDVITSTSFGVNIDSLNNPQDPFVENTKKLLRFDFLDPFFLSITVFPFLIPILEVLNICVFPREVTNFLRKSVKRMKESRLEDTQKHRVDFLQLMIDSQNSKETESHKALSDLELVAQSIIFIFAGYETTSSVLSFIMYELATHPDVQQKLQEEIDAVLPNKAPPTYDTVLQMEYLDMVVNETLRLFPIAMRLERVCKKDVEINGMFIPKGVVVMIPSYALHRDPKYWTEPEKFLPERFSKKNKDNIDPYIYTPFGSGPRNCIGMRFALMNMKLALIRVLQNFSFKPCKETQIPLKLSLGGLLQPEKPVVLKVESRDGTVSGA

[12] = target: Heat shock protein HSP 90-alpha (Homo sapiens, UniProt P07900); assay type: functional, organism-based
INS1 = assay: INS-1E survival protection against cytokine death – cell-based, luminescence, retest, dose response (AID 449756); assay type: functional; conditions: Rattus norvegicus;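 note: cell death triggered by IL-1 beta plus TNF-alpha plus IFN-gamma mixture; protective hits raise ATP signal compared with cytokine alone wells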
[13] = target: T5, Rac GTPase-activating protein 1 (Homo sapiens, UniProt Q9H0H5); assay: blockers of MgcRacGAP-driven Rac1 GTP hydrolysis – biochemical, ADP Hunter fluorescence, primary and confirmatory, confirmation (AID 624330); assay type: functional
T5 sequence (Q9H0H5 whole entry): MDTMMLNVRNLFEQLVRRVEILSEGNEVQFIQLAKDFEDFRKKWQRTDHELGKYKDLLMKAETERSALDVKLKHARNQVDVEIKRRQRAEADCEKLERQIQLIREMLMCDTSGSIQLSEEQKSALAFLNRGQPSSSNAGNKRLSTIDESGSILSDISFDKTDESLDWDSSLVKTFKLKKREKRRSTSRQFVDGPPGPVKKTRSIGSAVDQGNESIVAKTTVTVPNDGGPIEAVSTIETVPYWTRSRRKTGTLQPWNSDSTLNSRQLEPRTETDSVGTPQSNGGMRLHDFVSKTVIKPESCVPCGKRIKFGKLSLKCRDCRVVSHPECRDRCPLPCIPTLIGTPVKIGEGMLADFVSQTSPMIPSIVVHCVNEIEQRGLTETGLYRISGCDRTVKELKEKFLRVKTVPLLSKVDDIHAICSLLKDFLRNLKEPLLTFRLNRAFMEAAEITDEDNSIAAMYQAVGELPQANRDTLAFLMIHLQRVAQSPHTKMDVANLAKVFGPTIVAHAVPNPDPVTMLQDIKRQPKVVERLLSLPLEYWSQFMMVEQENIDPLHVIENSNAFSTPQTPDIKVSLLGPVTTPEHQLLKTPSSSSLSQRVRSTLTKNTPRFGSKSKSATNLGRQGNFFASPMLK

[14] = target: T3, Short transient receptor potential channel 4; assay: calcium entry via TRPC4 opening agents – cell-based, HEK293 TRPC4/mu-opioid, Fluo-4 calcium, dose response (AID 434937); assay type: functional

For Cc1cccc(NC(=O)CN2C(=O)S/C(=C\c3cccn3-c3cccc(C(=O)O)c3)C2=O)c1, the IC50 [1] was 6.83 µM (active) and the AC50 [2] was 0.519 µM (active).
For COc1ccc(/C=C2\SC(=O)NC2=S)cc1OC, the AC50 [3] was 9.55 µM (active).
For CCCC(=O)Nc1nc2ccc(S(=O)(=O)N3CCCCC3)cc2s1, the IC50 [4] was > 80 µM (inactive).
For CCOC(=O)CN1C(=O)S/C(=C\c2ccc(-c3ccc(C(=O)O)c(Cl)c3)o2)C1=O, the IC50 [1] was 4.84 µM (active).
With CN1CCN(c2cc(N3CCN(C(=O)c4ccco4)CC3)c3c4c(onc24)-c2ccccc2C3=O)CC1 the IC50 (Nonstructural protein 1) was 15.3 µM (active).
With CCCc1noc2c1/C(=N\O)CC(CC(C)SCC)C2 (stereo not given) the EC50 [5] was 1.5 µM (active).
In the case of COc1ccc(Nc2c3c(nc4ccccc24)CCC3)cc1, the EC50 [5] was 4.22 µM (active).
For Cc1cc(N(C)C)ccc1N=Nc1ccc2ncccc2c1, the IC50 (Nonstructural protein 1) was 9.43 µM (active).
With COc1ccc(Nc2nc(N)c3ccccc3n2)c(OC)c1 the EC50 [5] was 4.22 µM (active).
In the case of CCOc1ccc(Br)cc1C1=CC(=O)C[C@H](c2ccc(OC)cc2)C1, the IC50 [4] was > 80 µM (inactive), the AC50 [6] was > 70 µM (inactive) and the EC50 [7] was > 53 µM (inactive).
In the case of CC(C)CN(CC(C)C)c1nc(N)c(C#N)c(CC#N)c1C#N, the EC50 [5] was 5.96 µM (active).
For COc1ccc(/C=N/NC(=O)COc2ccccc2-c2ccccc2)cc1, the EC50 [8] was 8.05 µM (active), the EC50 [9] was 483 nM (active) and the EC50 [10] was 166 nM (active). The IC50 [4] was > 80 µM (inactive).
With Cc1c(OC(=O)c2ccc([N+](=O)[O-])cc2)c2c(c[n+]1C)COC(C)(C)OC2 the IC50 [11] was > 64 µM (inactive), the IC50 [1] was 4.14 µM (active) and the AC50 (Cytochrome P450 3A4) was 7.08 µM (inconclusive).
For Cc1c(C)c2cccnc2c2ncccc12, the IC50 [4] was > 80 µM (inactive), the AC50 [12] was 3.99 µM (active) and the AC50 (INS1) was 1.57 µM (active).
With COc1cc(/C=C2\SC(=S)N(NC(=O)c3cccc(O)c3)C2=O)ccc1O the AC50 [3] was 6.23 µM (active), the AC50 [2] was 32 µM (inactive) and the IC50 [13] was 54.8 µM (active).
With CSCC[C@H](NS(=O)(=O)c1ccc(C(C)=O)cc1)c1nnc2ccccn12 the IC50 [1] was 5.88 µM (active).
With CCn1cc(CN2CCC(n3nccc3NC(=O)CCCc3ccccc3)CC2)cn1 the EC50 [5] was 1.19 µM (active) and the EC50 [14] was 1.33 µM (active).
